For test [1] the following is noted: clinical trials; Eriksen et al. 1995, van Essen et al. 1997; cited from earlier work.
Test [2] deals with T1, human somatostatin receptor subtype sst2 (Homo sapiens, UniProt P30874).
T1 construct: expressed in transfected cells; host or cells: CHO cells (membranes)
The experiment in a line: Competition binding with 125I-LTT-SRIF-28, CHO cell membranes, sst2. The conditions noted are these: membranes of CHO cells transfected with human sst2. The protocol:
(§1) The affinity of the compounds of the invention for the five human somatostatin receptor subtypes (sst1, sst2, sst3, sst4, and sst5) was determined in competition binding assays with (^125I-Tyr)-[Leu^8, DTrp^22]-Somatostatin-28 (^125I-LTT-SRIF-28). The biological material for these experiments consisted of membranes from Chinese hamster ovary (CHO) cells stably transfected with one of the five human somatostatin receptor subtypes. Membranes (3-20 μg of total protein per sample) and trace amount of ^125I-LTT-SRIF-28 were incubated in 10 mM Hepes, 1 mM EDTA, 5 mM MgCl2, 5 mg/ml of BSA and 30 μg/ml bacitracin, pH 7.6, with six concentrations of the compounds. Each concentration was run in duplicate. Nonspecific binding was defined by 1 μM somatostatin-14 (SRIF-14) and corresponded to 5-25% of total binding. After 60 min at room temperature, incubations were terminated by rapid vacuum filtration through GF/B glass fiber filter mats (presoaked at 4° C. in 200 ml of 10 mM Hepes, 1 mM EDTA, 5 mM MgCl2, pH 7.6) and three 5 ml washes with ice-cold wash buffer (20 mM TRIS, 1 mM EDTA, 5 mM MgCl2, pH 7.4). The filters were then dried, impregnated with scintillate and their radioactivity was measured by scintillation counting. […] Affinity constants (Ki) were calculated from the IC50 values according to the Cheng-Prusoff's equation (Cheng and Prusoff, 1973). […]

The target of test [3] is T2, human somatostatin receptor subtype sst3 (Homo sapiens, UniProt P32745).
T2 construct: expressed in transfected cells; host or cells: CHO cells (membranes)
The experiment in a line: Competition binding with 125I-LTT-SRIF-28, CHO cell membranes, sst3. Particulars: membranes of CHO cells transfected with human sst3. The protocol:
as §1

The target in test [4] is T3, human somatostatin receptor subtype sst5 (Homo sapiens, UniProt P35346).
T3 construct: expressed in transfected cells; host or cells: CHO cells (membranes)
The experiment in a line: Competition binding with 125I-LTT-SRIF-28, CHO cell membranes, sst5. The conditions noted are these: membranes of CHO cells transfected with human sst5. The protocol:
as §1

Test [5] has as its target T4, human somatostatin receptor subtype sst4 (Homo sapiens, UniProt P31391).
T4 construct: expressed in transfected cells; host or cells: CHO cells (membranes)
Nature of the test: Competition binding with 125I-LTT-SRIF-28, CHO cell membranes, sst4. The protocol:
(§2) The affinity of the compounds of the invention for the five human somatostatin receptor subtypes (sst1, sst2, sst3, sst4, and sst5) was determined in competition binding assays with (^125I-Tyr)-[Leu^8, DTrp^22]-Somatostatin-28 (^125I-LTT-SRIF-28). The biological material for these experiments consisted of membranes from Chinese hamster ovary (CHO) cells stably transfected with one of the five human somatostatin receptor subtypes. Membranes (3-20 μg of total protein per sample) and trace amount of ^125I-LTT-SRIF-28 were incubated in 10 mM Hepes, 1 mM EDTA, 5 mM MgCl2, 5 mg/ml of BSA and 30 μg/ml bacitracin, pH 7.6, with six concentrations of the compounds. Each concentration was run in duplicate. Nonspecific binding was defined by 1 μM somatostatin-14 (SRIF-14) and corresponded to 5-25% of total binding. After 60 min at room temperature, incubations were terminated by rapid vacuum filtration through GF/B glass fiber filter mats (presoaked at 4° C. in 200 ml of 10 mM Hepes, 1 mM EDTA, 5 mM MgCl2, pH 7.6) and three 5 ml washes with ice-cold wash buffer (20 mM TRIS, 1 mM EDTA, 5 mM MgCl2, pH 7.4). The filters were then dried, impregnated with scintillate and their radioactivity was measured by scintillation counting. The analysis of the experiments was carried out by nonlinear least square curve fitting. Affinity constants (Ki) were calculated from the IC50 values according to the Cheng-Prusoff's equation (Cheng and Prusoff, 1973). Experiments were repeated a minimum of three times.

Test [6] concerns the target T5, human somatostatin receptor subtype sst1 (Homo sapiens, UniProt P30872).
T5 construct: expressed in transfected cells; host or cells: CHO cells (membranes)
The experiment in a line: Competition binding with 125I-LTT-SRIF-28, CHO cell membranes, sst1. The protocol:
as §2

[7] abbreviates: bound only, read-out: Ki values for the sst4.
Setting [8] is: membranes of CHO cells transfected with human sst4, read-out: sst4 Ki.
Setting [9] is: bound only, read-out: Ki values for the sst1.
Setting [10] is: membranes of CHO cells transfected with human sst1, read-out: sst1 Ki.

Molecules are shown by their SMILES. Structures can show the parent of a compound that is named as a salt. Where two headings read alike, the source gives them in different places.

The Ki is a dissociation constant, usually derived from enzyme kinetics or from competition with a known ligand.

T5 sequence (P30872 whole entry): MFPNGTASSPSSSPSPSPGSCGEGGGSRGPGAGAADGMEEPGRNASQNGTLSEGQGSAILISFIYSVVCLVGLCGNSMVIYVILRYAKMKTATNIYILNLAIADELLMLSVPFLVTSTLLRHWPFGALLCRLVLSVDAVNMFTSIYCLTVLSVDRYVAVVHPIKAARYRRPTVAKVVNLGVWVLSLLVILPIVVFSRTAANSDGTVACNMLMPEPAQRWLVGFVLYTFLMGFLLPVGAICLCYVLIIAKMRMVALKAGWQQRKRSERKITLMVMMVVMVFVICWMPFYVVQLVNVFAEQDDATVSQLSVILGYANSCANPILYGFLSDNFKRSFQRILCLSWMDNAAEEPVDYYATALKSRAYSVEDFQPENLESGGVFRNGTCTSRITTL
T4 sequence (P31391 whole entry): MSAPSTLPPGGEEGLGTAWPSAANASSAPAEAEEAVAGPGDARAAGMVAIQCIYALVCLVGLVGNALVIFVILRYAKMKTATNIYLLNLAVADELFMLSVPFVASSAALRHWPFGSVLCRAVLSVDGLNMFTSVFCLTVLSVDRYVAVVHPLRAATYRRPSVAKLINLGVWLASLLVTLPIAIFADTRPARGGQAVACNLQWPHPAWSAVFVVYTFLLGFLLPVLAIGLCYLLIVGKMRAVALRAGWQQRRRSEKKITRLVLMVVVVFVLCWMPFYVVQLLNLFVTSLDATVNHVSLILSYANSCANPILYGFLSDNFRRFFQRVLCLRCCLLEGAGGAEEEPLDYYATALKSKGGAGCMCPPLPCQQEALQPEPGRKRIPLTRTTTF
T1 sequence (P30874 whole entry): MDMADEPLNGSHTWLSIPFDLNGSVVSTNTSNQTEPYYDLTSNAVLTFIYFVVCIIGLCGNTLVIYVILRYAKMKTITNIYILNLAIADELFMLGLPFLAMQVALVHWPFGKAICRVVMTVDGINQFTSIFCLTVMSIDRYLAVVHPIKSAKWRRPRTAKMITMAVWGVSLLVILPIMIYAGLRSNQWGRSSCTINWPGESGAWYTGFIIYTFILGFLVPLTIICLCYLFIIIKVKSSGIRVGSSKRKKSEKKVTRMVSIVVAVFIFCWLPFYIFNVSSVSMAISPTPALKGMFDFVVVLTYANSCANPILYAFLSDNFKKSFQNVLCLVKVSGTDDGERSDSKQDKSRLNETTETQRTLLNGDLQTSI
T2 sequence (P32745 whole entry): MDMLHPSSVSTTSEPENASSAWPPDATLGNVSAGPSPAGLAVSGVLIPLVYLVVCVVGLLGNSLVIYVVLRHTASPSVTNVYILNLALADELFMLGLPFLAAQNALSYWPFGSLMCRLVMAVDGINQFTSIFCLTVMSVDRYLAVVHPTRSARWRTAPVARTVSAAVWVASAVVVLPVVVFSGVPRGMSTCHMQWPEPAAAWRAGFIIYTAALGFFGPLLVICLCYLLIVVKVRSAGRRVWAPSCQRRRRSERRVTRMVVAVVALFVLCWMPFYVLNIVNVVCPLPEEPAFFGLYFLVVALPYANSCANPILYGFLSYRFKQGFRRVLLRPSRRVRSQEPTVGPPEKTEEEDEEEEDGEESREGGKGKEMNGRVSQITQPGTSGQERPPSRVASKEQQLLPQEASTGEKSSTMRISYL
T3 sequence (P35346 whole entry): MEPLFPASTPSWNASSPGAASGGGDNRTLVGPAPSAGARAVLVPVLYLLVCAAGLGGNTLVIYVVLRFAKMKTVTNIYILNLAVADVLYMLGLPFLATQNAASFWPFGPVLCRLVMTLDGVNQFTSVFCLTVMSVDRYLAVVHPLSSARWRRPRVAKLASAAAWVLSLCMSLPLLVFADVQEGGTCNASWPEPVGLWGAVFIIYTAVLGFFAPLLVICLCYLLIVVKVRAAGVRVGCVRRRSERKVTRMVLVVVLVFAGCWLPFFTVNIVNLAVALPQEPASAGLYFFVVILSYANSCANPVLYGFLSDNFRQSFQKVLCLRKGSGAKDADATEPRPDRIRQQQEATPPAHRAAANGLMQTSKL

`CC(C)[C@@H]1NC(=O)[C@H](CCCCN)NC(=O)[C@@H](Cc2c[nH]c3ccccc23)NC(=O)[C@H](Cc2ccc(O)cc2)NC(=O)[C@@H](NC(=O)[C@H](N)Cc2ccc3ccccc3c2)CSSC[C@@H](C(=O)N[C@H](C(N)=O)[C@@H](C)O)NC1=O` [lanreotide]: the “efficacy in prevention of restenosis” value in test [1] was “failed to show efficacy”.
Regarding `Cc1ccc(S(=O)(=O)N[C@@H](CCCNC(C)C)COc2ccccc2)c2ccccc12` [compound 33, (S)-4-methylnaphthalene-1-sulfonic acid (4-isopropylamino-1-phenoxymethylbutyl)amide], the inhibition constant Ki was greater than 10 µM in test [2]; greater than 3 µM in test [3]; greater than 3 µM in test [4]; less than 0.3 µM in test [5] (setting [7]); 0.11 ± 0.01 µM in test [5] (setting [8]); less than 0.3 µM in test [6] (setting [9]). Moreover, the Ki in test [6] (setting [10]) stood at 0.0096 ± 0.0005 µM.
Turning to `Cc1ccc(S(=O)(=O)N[C@@H](CCN)CNCc2ccccc2)c2ccccc12` [compound 2, (S)-4-methylnaphthalene-1-sulfonic acid (3-amino-1-benzyl-aminomethylpropyl)amide], the Ki is greater than 10 µM in test [2]; greater than 3 µM in test [3]; greater than 3 µM in test [4]; 0.0056 ± 0.0032 µM in test [5] (setting [8]); 0.2 ± 0.06 µM in test [6] (setting [10]).
As to `Cc1ccc(S(=O)(=O)NC(COCc2ccccc2)CC2CCCN2)c2ccccc12` (stereo not shown) [compound 32, 4-methylnaphthalene-1-sulfonic acid (1-benzyloxymethyl-2-pyrrolidin-2-ylethyl)amide], the Ki in test [5] (setting [7]) and in test [6] (setting [9]) was less than 0.3 µM each time.
Take `Cc1ccc(S(=O)(=O)N[C@@H](CCCNC(C)C)COCc2ccccc2)c2ccccc12` [compound 62, (S)-4-methylnaphthalene-1-sulfonic acid (1-benzyloxymethyl-4-isopropylaminobutyl)amide]: the Ki in test [5] (setting [7]) and in test [6] (setting [9]) was less than 0.3 µM each time.
For the compound `C[C@@H](O)[C@@H]1NC(=O)[C@H](CCCCN)NC(=O)[C@@H](Cc2c[nH]c3ccccc23)NC(=O)[C@H](Cc2ccccc2)NC(=O)[C@@H](NC(=O)[C@H](N)Cc2ccccc2)CSSC[C@@H](C(=O)N[C@H](CO)[C@@H](C)O)NC1=O` [octreotide], the “efficacy in prevention of restenosis” value in test [1] is listed as “failed to show efficacy”.
Turning to `Cc1ccc(S(=O)(=O)N[C@@H](CCNC2=NCCN2)COCc2ccccc2)c2ccccc12` [compound 79, (S)-4-methylnaphthalene-1-sulfonic acid [1-benzyloxymethyl-3-(4,5-dihydro-1H-imidazol-2-ylamino)propyl]amide formic acid salt], the Ki in test [5] (setting [7]) and in test [6] (setting [9]) was less than 0.3 µM each time.
Turning to `Cc1ccc(S(=O)(=O)N[C@@H](CCCN)COCc2ccccc2)c2ccccc12` [compound 15, (S)-4-methyl-naphthalene-1-sulfonic acid (4-amino-1-benzyloxymethylbutyl)amide], the Ki in test [5] (setting [7]) and in test [6] (setting [9]) was less than 0.3 µM each time.

(Values after patent US20100048549A1, “Peptidomimetics selective for the somatostatin receptor subtypes 1 and/or 4” (priority 2005, published 2010).)
